Results on 2 compounds are retold here after paper PMC9765439, “Systems-Wide Dissection of Organic Acid Assimilation in Pseudomonas aeruginosa Reveals a Novel Path To Underground Metabolism” (mBio, 2022).

Structures are written as SMILES.

The target in assay [1] is T1, GltAPa (citrate synthase) (Pseudomonas aeruginosa, UniProt P14165).
T1 construct: gene gltA; full-length ORF, 429 aa; pET-19m, N-terminal TEV-cleavable His6 tag, cut; E. coli host; hexamer in asymmetric unit
T1 sequence (P14165 1-428): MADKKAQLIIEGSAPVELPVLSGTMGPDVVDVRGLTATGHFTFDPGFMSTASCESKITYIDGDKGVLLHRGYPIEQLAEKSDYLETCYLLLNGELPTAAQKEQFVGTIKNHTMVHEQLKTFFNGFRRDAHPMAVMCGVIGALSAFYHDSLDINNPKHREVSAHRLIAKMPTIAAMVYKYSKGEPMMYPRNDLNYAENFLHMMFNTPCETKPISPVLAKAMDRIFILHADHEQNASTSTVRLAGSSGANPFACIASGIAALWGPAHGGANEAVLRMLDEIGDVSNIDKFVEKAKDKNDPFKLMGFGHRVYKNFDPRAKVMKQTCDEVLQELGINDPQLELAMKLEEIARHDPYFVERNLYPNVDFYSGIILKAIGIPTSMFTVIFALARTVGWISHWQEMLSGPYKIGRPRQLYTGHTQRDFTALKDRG
The assay is described as follows: DTNB (TNB release) spectrophotometric assay, […] nm. The class given is biochemical. The following applies: 0.5 mM oxaloacetate; 50 mM HEPES pH 7.5, 0.1 M KCl, 0.54 M glycerol; 37 °C.

Assay [2] deals with T2, PrpCPa (2-methylcitrate synthase, 2-MCS) (Pseudomonas aeruginosa, UniProt Q9I5E3).
T2 construct: gene prpC; pET-19m, N-terminal TEV-cleavable His6 tag, cut; E. coli host; homodimer
T2 sequence (Q9I5E3 1-375): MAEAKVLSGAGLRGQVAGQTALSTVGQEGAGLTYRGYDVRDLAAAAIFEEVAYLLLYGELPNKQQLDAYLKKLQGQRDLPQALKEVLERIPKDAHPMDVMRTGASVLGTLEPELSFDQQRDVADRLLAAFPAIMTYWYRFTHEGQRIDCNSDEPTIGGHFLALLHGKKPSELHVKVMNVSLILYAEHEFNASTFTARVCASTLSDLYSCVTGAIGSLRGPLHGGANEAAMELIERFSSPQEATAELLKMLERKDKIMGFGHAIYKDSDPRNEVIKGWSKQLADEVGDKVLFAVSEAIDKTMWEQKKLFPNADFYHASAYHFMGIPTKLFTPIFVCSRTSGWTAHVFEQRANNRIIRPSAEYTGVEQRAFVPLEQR
The assay is described as follows: X-ray crystallography. The conditions noted are these: 2.5 mM oxaloacetate in crystallisation, Bis-Tris pH 5.5; active site of chain D only. The format is binding.

Take `CC(=O)SCCNC(=O)CCNC(=O)[C@H](O)C(C)(C)COP(=O)(O)OP(=O)(O)OC[C@H]1O[C@@H](n2cnc3c(N)ncnc32)[C@H](O)[C@@H]1OP(=O)(O)O` [acetyl-CoA]: in assay [1], the “DTNB (TNB release) spectrophotometric assay, 412 nm” value was “Purified GltAPa is a citrate synthase with no detectable 2-methylcitrate synthase activity”.

With `O=C(O)CC(=O)C(=O)O` [oxaloacetate], in assay [2], the X-ray crystallography result is listed as “Crystal structure of oxaloacetate-bound PrpCPa represented in cartoon (PDB: 6S87)”.
